The data set can be described thus: Determination of pharmacokinetic parameters in mice (oral cassette dosing). In kind it is in vivo. The settings on record: C57BL/6 mice, po 5 mg/kg; for Vd: elimination phase; for CL: total body clearance; for Cmax / Tmax / AUC(0-inf) / concentration at 10 min / concentration at 30 min / concentration at 60 min / concentration at 120 min / concentration at 240 min / concentration at 480 min: male, mouse, plasma; for AUC(0-inf): extrapolated to infinity; for concentration at 10 min / concentration at 30 min / concentration at 60 min / concentration at 120 min / concentration at 240 min / concentration at 480 min: cassette, read-out: mean plasma conc. The method, then:
FIG. 1: Graphical depiction of pharmacokinetic data of compound A compared to example 3. Compound plasma concentrations (logarithmic scale) are plottet against sampling timepoints. Conditions: C57BL/6 mice, oral cassette dosing, 5 mg/Kg in 10% HPBCD/20 mM phosphate buffer.
Determination of Pharmacokinetic Parameters in Mice
Data on the rate and extent of absorption of the test compounds were generated. Compounds were applied perorally at 5 mg/kg each to male 8 weeks old C57BL/6 mice and plasma concentrations of the test items were determined by LC-MS/MS. A solution of […] of each test item was produced by diluting them in the vehicle, 10% HPBCD (hydroxypropyl-beta-cyclodextrin) in 20 mM phosphate buffer pH 7.0 (v/w). These solutions were stirred overnight at room temperature and heated to 60° C. for 10 minutes, resulting in a full solubilization. Then, an identical volume of each solution were mixed together to constitute the cassette. The application was performed by administrating the solution perorally to the mice, with an application volume of 10 ml/kg. […] Blood samples were obtained by sacrificing three animals for each time point (10, 30, 60, 120, 240, and 480 min) followed by cardiac puncture. Blood samples were treated with Li-heparin during collection procedure and stored on ice until centrifugation at 645 g (5 min, 4° C.). Plasma was harvested and kept at −20° C. until being assayed. To 50 μl of mouse plasma sample 6 μl acetonitrile containing an internal standard was added. Samples were vigorously shaken and centrifuged for 10 minutes at 6000 g and 20° C. An aliquot of the particle-free supernatant was transferred to 200 μl sampler vials and subsequently subjected to LC MS/MS for quantification.
Concentrations were plotted against sampling time for illustrating higher plasma levels of example 3 compared to plasma levels of compound A. The results are illustrated in FIG. 1.
PK calculation: The pharmacokinetic analysis of raw data was performed by applying a non-compartment model using the PK Solutions 2.0 software (Summit Research Services, Montrose, USA). All given parameters are model independent and were obtained by trapezoid area calculation and have the following meaning:
Cmax obs: maximal measured concentration;
tmax obs: time to reach the maximum measured concentration;
AUC0-∞: area under the concentration-time curve extrapolated to infinity;
Vd: volume of distribution during elimination phase;
CL: total body clearance.

Structures are written as SMILES.

A word on the Cmax: it is the maximum level reached in the sampled fluid or tissue. For orientation: Tmax means the time at which the peak concentration occurs. As usually defined, the AUC(0-inf) is the area under the concentration-time curve extrapolated to infinity.

As for `Cc1cc(OCc2c(-c3c(Cl)cccc3Cl)noc2C(C)C)cnc1Oc1ccc(C(=O)O)cc1` [Example 3, 4-(5-((3-(2,6-Dichlorophenyl)-5-isopropylisoxazol-4-yl)methoxy)-3-methylpyridin-2-yloxy)benzoic acid], the Vd was found to be 9.271 L/kg, the CL came out at 59 mL/min/kg, the Cmax is 904 ng/mL and the Tmax was 10 min. The AUC(0-inf) is 1410 ng·h/mL, the concentration at 10 min came out at 904 ng/mL, the concentration at 30 min stood at 867 ng/mL and the concentration at 60 min was 291 ng/mL. Also, the concentration at 120 min was 214 ng/mL, the concentration at 240 min was 63 ng/mL and the concentration at 480 min was determined as 20 ng/mL.
As for `CC(C)c1onc(-c2c(Cl)cccc2Cl)c1COc1ccc(Oc2ccc(C(=O)O)cc2)cc1` [Compound A, reference compound], the Vd was 110.078 L/kg, the CL amounted to 343 mL/min/kg, the Cmax was found to be 120 ng/mL and the Tmax is 10 min. The AUC(0-inf) is 242 ng·h/mL, the concentration at 10 min is 120 ng/mL, the concentration at 30 min came out at 102 ng/mL and the concentration at 60 min was 43 ng/mL. Further, the concentration at 120 min came out at 24 ng/mL, the concentration at 240 min turned out to be 15 ng/mL and the concentration at 480 min is 8 ng/mL.

The values are drawn from patent US8193192B2, “Heterocyclic FXR binding compounds” (Phenex Pharmaceuticals AG, priority 2006, dated 2012).
